Values quoted from earlier work, collected in US20260125371A1, “METHOD FOR INHIBITING CLOSTRIDIOIDES DIFFICILE SPORE GERMINATION” (UNIVERSITY OF NOTRE DAME DU LAC, priority 2022, published 2026).
Converted amounts (≈) assume the structure as drawn. Like-named read-outs stand apart in the source and are kept apart here.

How the values were obtained:
[1] = system: B. licheniformis ATCC 12759; settings: cited from earlier work
C. difficile strains = settings: cited from earlier work
[2] = system: S. haemolyticus ATCC 29970; settings: cited from earlier work
E. faecium = settings: cited from earlier work
A. baumanii ATCC17961 = settings: cited from earlier work
B. cereus ATCC 13061 = settings: cited from earlier work
E. faecalis = settings: cited from earlier work
E. coli ATCC25922 = settings: cited from earlier work
Gram-negative bacteria = settings: organisms of Table 2; data from earlier publication; cited from earlier work
P. aeruginosa ATCC27853 = settings: cited from earlier work
S. aureus = settings: cited from earlier work
E. aerogenes ATCC35029 = settings: cited from earlier work
K. pneumoniae ATCC700603 = settings: cited from earlier work
[3] = C. difficile strains of Table 4

SMILES: Oc1ccc(-c2nc(-c3ccc(OC4CCCC4)cc3)no2)cc1 [Compound 2]
- MIC [1]: 4 µg/mL (≈ 12.4 µM)
- IMIC50 (101 strains) (C. difficile strains; 101 C. difficile strains): 2 µg/mL
- MIC90 (101 strains) (C. difficile strains; 101 C. difficile strains): 4 µg/mL (≈ 12.4 µM)
- MIC (C. difficile strains; C. difficile 23828, resistant to FDX): 4 µg/mL (≈ 12.4 µM)
- MIC (C. difficile strains; C. difficile 24531, resistant to VAN): 4 µg/mL (≈ 12.4 µM)
- MIC (C. difficile strains; C. difficile 26675, resistant to MTZ): 4 µg/mL (≈ 12.4 µM)
- MIC (C. difficile strains; C. difficile BAA-1803): 2 µg/mL (≈ 6.2 µM)
- MIC (C. difficile strains; C. difficile BAA-1870): 2 µg/mL (≈ 6.2 µM)
- MIC (C. difficile strains; C. difficile NR49292): 2 µg/mL (≈ 6.2 µM)
- MIC (C. difficile strains; C. difficile NR49294): 2 µg/mL (≈ 6.2 µM)
- MIC (C. difficile strains; C. difficile NR49302): 2 µg/mL (≈ 6.2 µM)
- MIC (C. difficile strains; C. difficile NR49305): 2 µg/mL (≈ 6.2 µM)
- MIC (C. difficile strains; C. difficile NR49310): 4 µg/mL (≈ 12.4 µM)
- MIC (C. difficile strains; C. difficile NR49318): 4 µg/mL (≈ 12.4 µM)
- MIC50 (C. difficile strains; [3]): 2 µg/mL (≈ 6.2 µM)
- MIC90 (C. difficile strains; [3]): 4 µg/mL (≈ 12.4 µM)
- MIC90 (C. difficile strains; C. difficile, reported earlier): 4 µg/mL (≈ 12.4 µM)
- MIC (C. difficile strains; strain ATCC43598): 2 µg/mL (≈ 6.2 µM)
- MIC (C. difficile strains; strain BAA-1801): 2 µg/mL (≈ 6.2 µM)
- MIC (C. difficile strains; strain BAA-1803): 2 µg/mL (≈ 6.2 µM)
- MIC (C. difficile strains; strain BAA-1804): 2 µg/mL (≈ 6.2 µM)
- MIC (C. difficile strains; strain BAA-1812): 2 µg/mL (≈ 6.2 µM)
- MIC (C. difficile strains; strain BAA-1814): 2 µg/mL (≈ 6.2 µM)
- MIC (C. difficile strains; strain BAA-1870): 2 µg/mL (≈ 6.2 µM)
- MIC (C. difficile strains; strain HM-88): 4 µg/mL (≈ 12.4 µM)
- MIC (C. difficile strains; strain HM-89): 4 µg/mL (≈ 12.4 µM)
- MIC (C. difficile strains; strain HM-745): 4 µg/mL (≈ 12.4 µM)
- MIC (C. difficile strains; strain HM-746): 4 µg/mL (≈ 12.4 µM)
- MIC (C. difficile strains; strain HM-747): 4 µg/mL (≈ 12.4 µM)
- MIC (C. difficile strains; strain NR49292): 2 µg/mL (≈ 6.2 µM)
- MIC (C. difficile strains; strain NR49294): 2 µg/mL (≈ 6.2 µM)
- MIC (C. difficile strains; strain NR49302): 2 µg/mL (≈ 6.2 µM)
- MIC (C. difficile strains; strain NR49305): 2 µg/mL (≈ 6.2 µM)
- MIC (C. difficile strains; strain NR49310): 4 µg/mL (≈ 12.4 µM)
- MIC (C. difficile strains; strain NR49318): 4 µg/mL (≈ 12.4 µM)
- MIC (C. difficile strains; strain NR-13427): 2 µg/mL (≈ 6.2 µM)
- MIC (C. difficile strains; strain NR-13428): 4 µg/mL (≈ 12.4 µM)
- MIC (C. difficile strains; strain NR-13429): 4 µg/mL (≈ 12.4 µM)
- MIC (C. difficile strains; strain NR-13430): 2 µg/mL (≈ 6.2 µM)
- MIC (C. difficile strains; strain NR-13431): 2 µg/mL (≈ 6.2 µM)
- MIC (C. difficile strains; strain NR-13433): 4 µg/mL (≈ 12.4 µM)
- MIC (C. difficile strains; strain NR-13434): 2 µg/mL (≈ 6.2 µM)
- MIC (C. difficile strains; strain NR-13435): 4 µg/mL (≈ 12.4 µM)
- MIC (C. difficile strains; strain NR-13436): 4 µg/mL (≈ 12.4 µM)
- MIC (C. difficile strains; strain NR-13437): 4 µg/mL (≈ 12.4 µM)
- MIC (C. difficile strains; strain NR-13438): 2 µg/mL (≈ 6.2 µM)
- MIC (C. difficile strains; strain NR-13553): 2 µg/mL (≈ 6.2 µM)
- MIC (C. difficile strains; strain NR-32882): 2 µg/mL (≈ 6.2 µM)
- MIC (C. difficile strains; strain NR-32883): 2 µg/mL (≈ 6.2 µM)
- MIC (C. difficile strains; strain NR-32884): 2 µg/mL (≈ 6.2 µM)
- MIC (C. difficile strains; strain NR-32885): 4 µg/mL (≈ 12.4 µM)
- MIC (C. difficile strains; strain NR-32886): 2 µg/mL (≈ 6.2 µM)
- MIC (C. difficile strains; strain NR-32887): 4 µg/mL (≈ 12.4 µM)
- MIC (C. difficile strains; strain NR-32888): 4 µg/mL (≈ 12.4 µM)
- MIC (C. difficile strains; strain NR-32889): 4 µg/mL (≈ 12.4 µM)
- MIC (C. difficile strains; strain NR-32890): 2 µg/mL (≈ 6.2 µM)
- MIC (C. difficile strains; strain NR-32891): 4 µg/mL (≈ 12.4 µM)
- MIC (C. difficile strains; strain NR-32892): 4 µg/mL (≈ 12.4 µM)
- MIC (C. difficile strains; strain NR-32895): 2 µg/mL (≈ 6.2 µM)
- MIC (C. difficile strains; strain NR-32896): 2 µg/mL (≈ 6.2 µM)
- MIC (C. difficile strains; strain NR-32897): 2 µg/mL (≈ 6.2 µM)
- MIC (C. difficile strains; strain NR-32900): 4 µg/mL (≈ 12.4 µM)
- MIC (C. difficile strains; strain NR-32903): 2 µg/mL (≈ 6.2 µM)
- MIC (C. difficile strains; strain NR-32904): 2 µg/mL (≈ 6.2 µM)
- MIC (C. difficile strains; strain NR-49277): 2 µg/mL (≈ 6.2 µM)
- MIC (C. difficile strains; strain NR-49278): 2 µg/mL (≈ 6.2 µM)
- MIC (C. difficile strains; strain NR-49279): 2 µg/mL (≈ 6.2 µM)
- MIC (C. difficile strains; strain NR-49280): 4 µg/mL (≈ 12.4 µM)
- MIC (C. difficile strains; strain NR-49281): 4 µg/mL (≈ 12.4 µM)
- MIC (C. difficile strains; strain NR-49282): 4 µg/mL (≈ 12.4 µM)
- MIC (C. difficile strains; strain NR-49283): 4 µg/mL (≈ 12.4 µM)
- MIC (C. difficile strains; strain NR-49284): 4 µg/mL (≈ 12.4 µM)
- MIC (C. difficile strains; strain NR-49285): 2 µg/mL (≈ 6.2 µM)
- MIC (C. difficile strains; strain NR-49286): 2 µg/mL (≈ 6.2 µM)
- MIC (C. difficile strains; strain NR-49287): 2 µg/mL (≈ 6.2 µM)
- MIC (C. difficile strains; strain NR-49288): 2 µg/mL (≈ 6.2 µM)
- MIC (C. difficile strains; strain NR-49289): 2 µg/mL (≈ 6.2 µM)
- MIC (C. difficile strains; strain NR-49290): 4 µg/mL (≈ 12.4 µM)
- MIC (C. difficile strains; strain NR-49291): 2 µg/mL (≈ 6.2 µM)
- MIC (C. difficile strains; strain NR-49293): 2 µg/mL (≈ 6.2 µM)
- MIC (C. difficile strains; strain NR-49295): 4 µg/mL (≈ 12.4 µM)
- MIC (C. difficile strains; strain NR-49296): 4 µg/mL (≈ 12.4 µM)
- MIC (C. difficile strains; strain NR-49297): 2 µg/mL (≈ 6.2 µM)
- MIC (C. difficile strains; strain NR-49298): 4 µg/mL (≈ 12.4 µM)
- MIC (C. difficile strains; strain NR-49299): 2 µg/mL (≈ 6.2 µM)
- MIC (C. difficile strains; strain NR-49300): 2 µg/mL (≈ 6.2 µM)
- MIC (C. difficile strains; strain NR-49301): 2 µg/mL (≈ 6.2 µM)
- MIC (C. difficile strains; strain NR-49303): 2 µg/mL (≈ 6.2 µM)
- MIC (C. difficile strains; strain NR-49304): 4 µg/mL (≈ 12.4 µM)
- MIC (C. difficile strains; strain NR-49306): 4 µg/mL (≈ 12.4 µM)
- MIC (C. difficile strains; strain NR-49307): 4 µg/mL (≈ 12.4 µM)
- MIC (C. difficile strains; strain NR-49308): 2 µg/mL (≈ 6.2 µM)
- MIC (C. difficile strains; strain NR-49309): 2 µg/mL (≈ 6.2 µM)
- MIC (C. difficile strains; strain NR-49311): 2 µg/mL (≈ 6.2 µM)
- MIC (C. difficile strains; strain NR-49312): 4 µg/mL (≈ 12.4 µM)
- MIC (C. difficile strains; strain NR-49313): 2 µg/mL (≈ 6.2 µM)
- MIC (C. difficile strains; strain NR-49314): 2 µg/mL (≈ 6.2 µM)
- MIC (C. difficile strains; strain NR-49315): 4 µg/mL (≈ 12.4 µM)
- MIC (C. difficile strains; strain NR-49316): 4 µg/mL (≈ 12.4 µM)
- MIC (C. difficile strains; strain NR-49317): 4 µg/mL (≈ 12.4 µM)
- MIC (C. difficile strains; strain NR-49319): 4 µg/mL (≈ 12.4 µM)
- MIC (C. difficile strains; strain NR-49320): 2 µg/mL (≈ 6.2 µM)
- MIC (C. difficile strains; strain NR-49321): 4 µg/mL (≈ 12.4 µM)
- MIC (C. difficile strains; strain NR-49323): 4 µg/mL (≈ 12.4 µM)
- MIC (C. difficile strains; strain NR-49324): 4 µg/mL (≈ 12.4 µM)
- MIC (C. difficile strains; strain NR-49325): 4 µg/mL (≈ 12.4 µM)
- MIC (C. difficile strains; strain NR-49326): 2 µg/mL (≈ 6.2 µM)
- MIC (C. difficile strains; strain NR-49327): 2 µg/mL (≈ 6.2 µM)
- MIC (C. difficile strains; strain NR-49328): 2 µg/mL (≈ 6.2 µM)
- MIC (C. difficile strains; strain NR-49329): 2 µg/mL (≈ 6.2 µM)
- MIC (C. difficile strains; strain RMA23691): 4 µg/mL (≈ 12.4 µM)
- MIC (C. difficile strains; strain RMA23828): 4 µg/mL (≈ 12.4 µM)
- MIC (C. difficile strains; strain RMA24531): 4 µg/mL (≈ 12.4 µM)
- MIC (C. difficile strains; strain RMA24923): 4 µg/mL (≈ 12.4 µM)
- MIC (C. difficile strains; strain RMA26675): 4 µg/mL (≈ 12.4 µM)
- MIC (C. difficile strains; strain RMA27081): 4 µg/mL (≈ 12.4 µM)
- MIC (C. difficile strains; strain RMA27173): 4 µg/mL (≈ 12.4 µM)
- MIC [2]: 2 µg/mL (≈ 6.2 µM)
- MIC (E. faecium; E. faecium 106 (Van R)): 2 µg/mL (≈ 6.2 µM)
- MIC (E. faecium; E. faecium 119-39A (Van S)): 2 µg/mL (≈ 6.2 µM)
- MIC (E. faecium; E. faecium NCTC 7171): 4 µg/mL (≈ 12.4 µM)
- MIC (A. baumanii ATCC17961): >128 µg/mL
- MIC (B. cereus ATCC 13061): 2 µg/mL (≈ 6.2 µM)
- MIC (E. faecalis; E. faecalis 99 (Van R)): 4 µg/mL (≈ 12.4 µM)
- MIC (E. faecalis; E. faecalis 201 (Van S)): 4 µg/mL (≈ 12.4 µM)
- MIC (E. faecalis; E. faecalis ATCC 29212): 4 µg/mL (≈ 12.4 µM)
- MIC (E. coli ATCC25922): >128 µg/mL
- activity against Gram-negative organisms (Gram-negative bacteria): no activity
- MIC (P. aeruginosa ATCC27853): >128 µg/mL
- MIC (S. aureus; S. aureus ATCC 27660): 2 to 4 µg/mL
- MIC (S. aureus; S. aureus ATCC 29213): 2 µg/mL (≈ 6.2 µM)
- MIC (S. aureus; S. aureus NRS100 (COL)): 1 µg/mL (≈ 3.1 µM)
- MIC (S. aureus; S. aureus NRS119): 1 to 2 µg/mL
- MIC (S. aureus; S. aureus NRS120): 2 µg/mL (≈ 6.2 µM)
- MIC (S. aureus; S. aureus VRS1): 2 µg/mL (≈ 6.2 µM)
- MIC (S. aureus; S. aureus VRS2): 2 µg/mL (≈ 6.2 µM)
- MIC (E. aerogenes ATCC35029): >128 µg/mL
- MIC (K. pneumoniae ATCC700603): >128 µg/mL
